# Earlier results as cited in patent US10016389B2, “Method of making liposomes, liposome compositions made by the methods, and methods of using the same” (LivOn Laboratories, priority 2011, dated 2018).
# What was measured:
# [1] = not given; remark: listed apart in the source
# [2] = not given; remark: listed apart in the source
# [3] = rat populations
# [4] = 1000 mg daily, 42 days
# [5] = not given; remark: listed apart in the source
SMILES,"improvement of insulin sensitivity (oral 600, 1200 or 1800 mg/day, after 4 weeks) [%]","improvement of insulin-stimulated glucose disposal (insulin sensitivity) (single intravenous infusion of 1000 mg, vs placebo infusion) [%]",survival rate after a stroke vs untreated animals [1],"peak plasma concentrations ([2]; 3 g orally every 4 hours, predicted by pharmacokinetic modeling) [µmol/L]",half-life ([2]; in vivo) [min],plasma concentrations ([2]; intravenous administration),oral LD50 [3],average fasting blood glucose levels ([4]; fell from 169.33 mg/dl) [mg/dL],average LDL ([4]; reduced from 130.95 mg/dl) [mg/dL],"Average HbA1C ([4]; reduced from 8,82%) [%]",Insulin levels ([4]; reduced from 16.91 microunits/mL) [microunits/mL],"reduction of risk of cerebrovascular deaths ([5]; Linxian trial, 120 mg daily plus molybdenum for 5-6 years, 10 years follow-up) [%]","lower risk of coronary heart disease ([5]; ≥700 mg/day, pooled analysis of nine studies) [%]"
"O=C(O)CCCCC1CCSS1 (racemic) [racemic ALA, alpha lipoic acid]",25,50,four times greater survival rate,,,,,,,,,,
"O=C1O[C@H]([C@@H](O)CO)C(O)=C1O [vitamin C, L-ascorbic acid]",,,,220,30,"≤ 26,000 micromol/L","11,900 mg per kg",144.80,125.91,7.66,8.77,8,25
